This note sets out measurements from ChEMBL document CHEMBL2407074, “Three dimensional structure of a bacterial α-l-fucosidase with a 5-membered iminocyclitol inhibitor” (Bioorg Med Chem, 2013).

Assay [1] is described as follows: Inhibition of bovine kidney fucosidase. Also on record: species or system Bos taurus.
Assay [2] is described as follows: Inhibition of Bacteroides thetaiotaomicron recombinant alpha-L-fucosidase using 2-chloro-4-nitrophenyl-alpha-L-fucopyranoside as substrate after 5 mins by Michaelis Menten equation analysis.

Turning to `C[C@@H]1N[C@@H](c2nc3ccccc3[nH]2)[C@H](O)[C@@H]1O`, the figures for the Ki in assay [1] and in assay [2] were 80 nM and 2000 nM, respectively.
